Paper PMC6544242, “Development and validation of a multiplex UHPLC-MS/MS method for the determination of the investigational antibiotic against multi-resistant tuberculosis macozinone (PBTZ169) and five active metabolites in human plasma” (PLoS ONE, 2019)
Like-named read-outs stand apart in the source and are kept apart here.

How the values were obtained:
[1] = Phase Ia clinical pharmacokinetic trial, plasma levels in healthy volunteers; details: human
Description: The phase 1a clinical study assessing the safety and pharmacokinetics of PBTZ169 in healthy volunteers (NCT03423030), was performed at the Service of Clinical Pharmacology of the Lausanne University Hospital and was approved on 06.09.2017 (2017–01241) by the Ethics Committee of the Canton of Vaud (CER-VD) and on 17.11.2017 (2017DR1171) by Swissmedic. All volunteers gave their written informed consent.
The concentration measured in this plasma sample is 464 ng/mL, 147 ng/mL, 13 ng/mL, 12 ng/mL and 2 ng/mL for PBTZ169, Met 3-OH, Met 3-oxo, Met amino and Met 1-OH, respectively. […] Of note, measured plasma levels were multiplied by the factor 1.1 accounting for the blood 10:1 dilution due to citrate solution.

[2] = human
[3] = system: Mycobacterium tuberculosis; details: not measured in this paper; cited from earlier work
[4] = human, 6 h
[5] = processed extract sample, 24h

O=c1nc(N2CCN(CC3(O)CCCCC3)CC2)sc2c([N+](=O)[O-])cc(C(F)(F)F)cc12 [Met 1-OH]
plasma levels in volunteers ([1]; in vivo): below 0.5 ng/mL
% from t0 ([2]; 1 h, 10 ng/mL): 4%
% from t0 ([2]; 1 h, 20 ng/mL): 3%
% from t0 ([2]; 1 h, 50 ng/mL): -1%
% from t0 ([2]; 1 h, 100 ng/mL): 2%
% from t0 ([2]; 1 h, 200 ng/mL): -1%
% from t0 ([2]; 1 h, 500 ng/mL): -4%
% from t0 ([2]; 2 h, 10 ng/mL): 1%
% from t0 ([2]; 2 h, 20 ng/mL): -2%
% from t0 ([2]; 2 h, 50 ng/mL): -4%
% from t0 ([2]; 2 h, 100 ng/mL): 0%
% from t0 ([2]; 2 h, 200 ng/mL): -3%
% from t0 ([2]; 2 h, 500 ng/mL): -6%
% from t0 ([2]; 4 h, 10 ng/mL): -1%
% from t0 ([2]; 4 h, 20 ng/mL): 0%
% from t0 ([2]; 4 h, 50 ng/mL): -9%
% from t0 ([2]; 4 h, 100 ng/mL): -2%
% from t0 ([2]; 4 h, 200 ng/mL): -4%
% from t0 ([2]; 4 h, 500 ng/mL): -11%
anti-TB activity in vitro (active / inactive) [3]: active
% from freshly processed samples (n=2) ([4]; 0.5 ng/mL): -15%
% from freshly processed samples (n=2) ([4]; 1 ng/mL): -9%
% from freshly prepared samples ([4]; 2 ng/mL): -4%
% from freshly processed samples (n=2) ([4]; 2 ng/mL): -4%
% from freshly processed samples (n=2) ([4]; 50 ng/mL): -1%
% from freshly prepared samples ([4]; 150 ng/mL): -3%
% from freshly processed samples (n=2) ([4]; 500 ng/mL): -1%
% from freshly processed samples (n=2) ([4]; 1000 ng/mL): 0%
% from freshly prepared samples ([4]; 1500 ng/mL): -2%
% from freshly processed samples (n=2) ([4]; 2000 ng/mL): -1%
% from t0 ([5]; 4°C, level H (QC 1500 ng/mL)): -2%
% from t0 ([5]; 4°C, level L (QC 2 ng/mL)): -12%
% from t0 ([5]; 4°C, level M (QC 150 ng/mL)): -9%
% from t0 ([5]; RT, level H (QC 1500 ng/mL)): -12%
% from t0 ([5]; RT, level L (QC 2 ng/mL)): -55%
% from t0 ([5]; RT, level M (QC 150 ng/mL)): -33%

O=c1nc(N2CCN(CC3CCCCC3O)CC2)sc2c([N+](=O)[O-])cc(C(F)(F)F)cc12 (stereo not shown) [Met 2-OH]
detection in vivo in plasma [1]: not detected
% from t0 ([2]; 1 h, 10 ng/mL): 1%
% from t0 ([2]; 1 h, 20 ng/mL): 1%
% from t0 ([2]; 1 h, 50 ng/mL): -10%
% from t0 ([2]; 1 h, 100 ng/mL): 2%
% from t0 ([2]; 1 h, 200 ng/mL): -2%
% from t0 ([2]; 1 h, 500 ng/mL): -9%
% from t0 ([2]; 2 h, 10 ng/mL): -1%
% from t0 ([2]; 2 h, 20 ng/mL): -1%
% from t0 ([2]; 2 h, 50 ng/mL): -17%
% from t0 ([2]; 2 h, 100 ng/mL): -2%
% from t0 ([2]; 2 h, 200 ng/mL): -5%
% from t0 ([2]; 2 h, 500 ng/mL): -15%
% from t0 ([2]; 4 h, 10 ng/mL): -3%
% from t0 ([2]; 4 h, 20 ng/mL): -2%
% from t0 ([2]; 4 h, 50 ng/mL): -30%
% from t0 ([2]; 4 h, 100 ng/mL): -3%
% from t0 ([2]; 4 h, 200 ng/mL): -6%
% from t0 ([2]; 4 h, 500 ng/mL): -26%
anti-TB activity in vitro (active / inactive) [3]: active
% from freshly processed samples (n=2) ([4]; 0.5 ng/mL): -16%
% from freshly processed samples (n=2) ([4]; 1 ng/mL): -6%
% from freshly prepared samples ([4]; 2 ng/mL): -8%
% from freshly processed samples (n=2) ([4]; 2 ng/mL): -6%
% from freshly processed samples (n=2) ([4]; 50 ng/mL): -4%
% from freshly prepared samples ([4]; 150 ng/mL): -4%
% from freshly processed samples (n=2) ([4]; 500 ng/mL): -3%
% from freshly processed samples (n=2) ([4]; 1000 ng/mL): 0%
% from freshly prepared samples ([4]; 1500 ng/mL): -4%
% from freshly processed samples (n=2) ([4]; 2000 ng/mL): -2%
% from t0 ([5]; 4°C, level H (QC 1500 ng/mL)): -4%
% from t0 ([5]; 4°C, level L (QC 2 ng/mL)): -16%
% from t0 ([5]; 4°C, level M (QC 150 ng/mL)): -10%
% from t0 ([5]; RT, level H (QC 1500 ng/mL)): -18%
% from t0 ([5]; RT, level L (QC 2 ng/mL)): -61%
% from t0 ([5]; RT, level M (QC 150 ng/mL)): -39%

O=c1nc(N2CCN(CC3CCCC(O)C3)CC2)sc2c([N+](=O)[O-])cc(C(F)(F)F)cc12 (stereo not shown) [Met 3-OH]
% from t0 ([2]; 1 h, 10 ng/mL): 6%
% from t0 ([2]; 1 h, 20 ng/mL): 8%
% from t0 ([2]; 1 h, 50 ng/mL): 12%
% from t0 ([2]; 1 h, 100 ng/mL): 5%
% from t0 ([2]; 1 h, 200 ng/mL): 5%
% from t0 ([2]; 1 h, 500 ng/mL): 8%
% from t0 ([2]; 2 h, 10 ng/mL): 7%
% from t0 ([2]; 2 h, 20 ng/mL): 7%
% from t0 ([2]; 2 h, 50 ng/mL): 12%
% from t0 ([2]; 2 h, 100 ng/mL): 4%
% from t0 ([2]; 2 h, 200 ng/mL): 1%
% from t0 ([2]; 2 h, 500 ng/mL): 9%
% from t0 ([2]; 4 h, 10 ng/mL): 4%
% from t0 ([2]; 4 h, 20 ng/mL): 12%
% from t0 ([2]; 4 h, 50 ng/mL): 15%
% from t0 ([2]; 4 h, 100 ng/mL): 4%
% from t0 ([2]; 4 h, 200 ng/mL): 6%
% from t0 ([2]; 4 h, 500 ng/mL): 1%
anti-TB activity in vitro (active / inactive) [3]: active
% from freshly processed samples (n=2) ([4]; 0.2 ng/mL): 3%
% from freshly processed samples (n=2) ([4]; 0.5 ng/mL): -14%
% from freshly processed samples (n=2) ([4]; 1 ng/mL): -13%
% from freshly prepared samples ([4]; 2 ng/mL): -7%
% from freshly processed samples (n=2) ([4]; 2 ng/mL): -10%
% from freshly processed samples (n=2) ([4]; 50 ng/mL): -8%
% from freshly prepared samples ([4]; 150 ng/mL): -5%
% from freshly processed samples (n=2) ([4]; 500 ng/mL): -6%
% from freshly processed samples (n=2) ([4]; 1000 ng/mL): -1%
% from freshly prepared samples ([4]; 1500 ng/mL): -4%
% from freshly processed samples (n=2) ([4]; 2000 ng/mL): -2%
% from t0 ([5]; 4°C, level H (QC 1500 ng/mL)): -2%
% from t0 ([5]; 4°C, level L (QC 2 ng/mL)): -14%
% from t0 ([5]; 4°C, level M (QC 150 ng/mL)): -9%
% from t0 ([5]; RT, level H (QC 1500 ng/mL)): -14%
% from t0 ([5]; RT, level L (QC 2 ng/mL)): -59%
% from t0 ([5]; RT, level M (QC 150 ng/mL)): -36%

O=C1CCCC(CN2CCN(c3nc(=O)c4cc(C(F)(F)F)cc([N+](=O)[O-])c4s3)CC2)C1 (stereo not shown) [Met 3-oxo]
% from t0 ([2]; 1 h, 10 ng/mL): -1%
% from t0 ([2]; 1 h, 20 ng/mL): -6%
% from t0 ([2]; 1 h, 50 ng/mL): -22%
% from t0 ([2]; 1 h, 100 ng/mL): 0%
% from t0 ([2]; 1 h, 200 ng/mL): -9%
% from t0 ([2]; 1 h, 500 ng/mL): -22%
% from t0 ([2]; 2 h, 10 ng/mL): -5%
% from t0 ([2]; 2 h, 20 ng/mL): -9%
% from t0 ([2]; 2 h, 50 ng/mL): -32%
% from t0 ([2]; 2 h, 100 ng/mL): -5%
% from t0 ([2]; 2 h, 200 ng/mL): -11%
% from t0 ([2]; 2 h, 500 ng/mL): -31%
concentration deviation in whole blood ([2]; 4 h): exceeded the accepted -15% limit
% from t0 ([2]; 4 h, 10 ng/mL): -9%
% from t0 ([2]; 4 h, 20 ng/mL): -15%
% from t0 ([2]; 4 h, 50 ng/mL): -51%
% from t0 ([2]; 4 h, 100 ng/mL): -10%
% from t0 ([2]; 4 h, 200 ng/mL): -18%
% from t0 ([2]; 4 h, 500 ng/mL): -50%
anti-TB activity in vitro (active / inactive) [3]: active
% from freshly processed samples (n=2) ([4]; 0.2 ng/mL): 6%
% from freshly processed samples (n=2) ([4]; 0.5 ng/mL): -14%
% from freshly processed samples (n=2) ([4]; 1 ng/mL): -2%
% from freshly prepared samples ([4]; 2 ng/mL): -4%
% from freshly processed samples (n=2) ([4]; 2 ng/mL): -10%
% from freshly processed samples (n=2) ([4]; 50 ng/mL): -6%
% from freshly prepared samples ([4]; 150 ng/mL): -4%
% from freshly processed samples (n=2) ([4]; 500 ng/mL): -4%
% from freshly processed samples (n=2) ([4]; 1000 ng/mL): 0%
% from freshly prepared samples ([4]; 1500 ng/mL): -4%
% from freshly processed samples (n=2) ([4]; 2000 ng/mL): -1%
% from t0 ([5]; 4°C, level H (QC 1500 ng/mL)): -2%
% from t0 ([5]; 4°C, level L (QC 2 ng/mL)): -14%
% from t0 ([5]; 4°C, level M (QC 150 ng/mL)): -9%
% from t0 ([5]; RT, level H (QC 1500 ng/mL)): -10%
% from t0 ([5]; RT, level L (QC 2 ng/mL)): -58%
% from t0 ([5]; RT, level M (QC 150 ng/mL)): -37%
